The numbers were not newly measured in publication PMC10088252, which cites them from elsewhere.

The conditions of the series: Chinese patients with advanced NSCLC, even at 800 mg QD; cited from earlier work.

Turning to `O=C(Nc1ccc(Oc2ccnc3c2CCN3)c(F)c1)c1c[nH]cc(-c2ccc(F)cc2)c1=O`, the “dose-limiting toxicity (DLT)” value was “No dose-limiting toxicity (DLT) occurred”.
